Data as given in US9273003B2, “Methods of treating lymphoma and rheumatoid arthritis with cyclopentyl (2S)-cyclohexyl[({6-[3-(hydroxyamino)-3-oxopropyl]pyridin-3-yl}methyl)amino]acetate” (GlaxoSmithKline Intellectual Property Development Limited, priority 2006, dated 2016).

Assays:
[1] = test system: HUT78 cells; assay: HUT cell inhibition assay (WST-1 cell viability); format: cell-based; settings: Homo sapiens; HUT78 cells; IC50 allocated to ranges; read-out: HUT activity
Experimental: (§1) Cancer cell lines (U937 and HUT) growing in log phase were harvested and seeded at 1000-2000 cells/well (100 μl final volume) into 96-well tissue culture plates. Following 24 h of growth cells were treated with Compound. Plates were then re-incubated for a further 72-96 h before a WST-1 cell viability assay was conducted according to the suppliers (Roche Applied Science) instructions.
(§2) Data were expressed as a percentage inhibition of the control, measured in the absence of inhibitor, as follows: % inhibition=100−[(S^i/S^o)×100] where S^i is the signal in the presence of inhibitor and S^o is the signal in the presence of DMSO.
(§3) Dose response curves were generated from 8 concentrations (top final concentration 10 μM, with 3-fold dilutions), using 6 replicates.
(§4) IC50 values were determined by non-linear regression analysis, after fitting the results to the equation for sigmoidal dose response with variable slope (% activity against log concentration of Compound), using Graphpad Prism software.

[2] = test system: HeLa cells; assay: HeLa cell inhibition assay (sulphorhodamine B cell viability); format: cell-based; settings: Homo sapiens, IC50 allocated to ranges
Experimental: HeLa cells growing in log phase were harvested and seeded at 1000 cells/well (200 μl final volume) into 96-well tissue culture plates. Following 24 h of cell growth cells were treated with compounds (final concentration of 20 μM). Plates were then re-incubated for a further 72 h before a sulphorhodamine B (SRB) cell viability assay was conducted according to the methodology described by Skehan et al, J. Natl. Canc. Inst., 1990, 82, 1107-1112.
Data were expressed as a percentage inhibition of the control, measured in the absence of inhibitor, as follows:— % inhibition=100−[(S^i/S^o)×100] where S^i is the signal in the presence of inhibitor and S^o is the signal in the presence of DMSO.
(§5) IC50 values were determined by non-linear regression analysis, after fitting the results of eight data points to the equation for sigmoidal dose response with variable slope (% activity against log concentration of Compound), using Graphpad Prism software.

[3] = target: histone deacetylase activity (HeLa nuclear extract); assay: HDAC fluorescent activity assay (Fluor de Lys, Biomol); format: biochemical; settings: IC50 allocated to ranges, read-out: HDAC activity
Experimental: The ability of compounds to inhibit histone deacetylase activities was measured using the commercially available HDAC fluorescent activity assay from Biomol. In brief, the Fluor de Lys™ substrate, a lysine with an epsilon-amino acetylation, is incubated with the source of histone deacetylase activity (HeLa nuclear extract) in the presence or absence of inhibitor. Deacetylation of the substrate sensitises the substrate to Fluor de Lys™ developer, which generates a fluorophore. Thus, incubation of the substrate with a source of HDAC activity results in an increase in signal that is diminished in the presence of an HDAC inhibitor.
Data are expressed as a percentage of the control, measured in the absence of inhibitor, with background signal being subtracted from all samples, as follows: % activity=[(S^i−B)/(S^o−B)]×100 where S^i is the signal in the presence of substrate, enzyme and inhibitor, S^o is the signal in the presence of substrate, enzyme and the vehicle in which the inhibitor is dissolved, and B is the background signal measured in the absence of enzyme.
as §5
Histone deacetylase activity from crude nuclear extract derived from HeLa cells was used for screening. The preparation, purchased from 4C (Seneffe, Belgium), was prepared from HeLa cells harvested whilst in exponential growth phase. The nuclear extract was prepared according to the methodology described by J. D. Dignam, Nucl. Acid. Res., 1983, 11, 1475-1489, snap frozen in liquid nitrogen and stored at −80° C. The final buffer composition was 20 mM Hepes, 100 mM KCl, 0.2 mM EDTA, 0.5 mM DTT, 0.2 mM PMSF and 20% (v/v) glycerol.

[4] = test system: U937 cells; assay: U937 cell inhibition assay (WST-1 cell viability); format: cell-based; settings: Homo sapiens, U-937; U937 cells; IC50 allocated to ranges; read-out: U937 activity
Experimental: as §1, §2, §3, §4

Row | SMILES | IC50 [2] | IC50 [3] | IC50 [4] | IC50 [1]
1 | CC(C)C[C@H](NS(=O)(=O)c1cccc(/C=C/C(=O)NO)c1)C(=O)OC1CCCC1 [Example 3, Cyclopentyl N-({3-[(1E)-3-(hydroxyamino)-3-oxoprop-1-en-1-yl]phenyl}sulfonyl)-L-leucinate] | 331 to 3300 nM | < 100 nM | 331 to 3300 nM | 331 to 3300 nM
2 | CC(C)C[C@H](NCc1ccc(CCC(=O)NO)nc1)C(=O)OC(C)(C)C [Example 66, tert-Butyl N-({6-[3-(hydroxyamino)-3-oxopropyl]pyridin-3-yl}methyl)-L-leucinate] | – | < 100 nM | < 330 nM | 331 to 3300 nM
3 | CC(C)(C)OC(=O)[C@@H](NCc1ccc(CCC(=O)NO)cc1)C1CCCCC1 [Example 40, tert-Butyl (2S)-cyclohexyl({4-[3-(hydroxyamino)-3-oxopropyl]benzyl}amino)acetate] | – | < 100 nM | 331 to 3300 nM | 331 to 3300 nM
4 | CC(C)C[C@H](NCc1ccc(/C=C/C(=O)NO)nc1)C(=O)OC1CCCC1 [Example 54, Cyclopentyl N-({6-[(1E)-3-(hydroxyamino)-3-oxoprop-1-en-1-yl]pyridin-3-yl}methyl)-L-leucinate] | – | < 100 nM | < 330 nM | 331 to 3300 nM
5 | CC(C)C[C@H](NCc1ccc(CCC(=O)NO)cc1)C(=O)O[C@@H]1C[C@H](C)CC[C@H]1C(C)C [Example 45, (1R,2S,5R)-2-Isopropyl-5-methylcyclohexyl N-{4-[3-(hydroxyamino)-3-oxopropyl]benzyl}-L-leucinate] | – | > 1000 nM | < 330 nM | 331 to 3300 nM
6 | O=C(CCc1cccc(CN[C@H](C(=O)OC2CCCC2)c2ccccc2)c1)NO [Example 51, Cyclopentyl (2S)-({3-[3-(hydroxyamino)-3-oxopropyl]benzyl}amino)(phenyl)acetate] | – | > 1000 nM | > 3300 nM | > 3300 nM
7 | COC(=O)[C@H](Cc1c[nH]c2ccccc12)NCc1ccc(/C=C/C(=O)NO)cc1 [Example 29, Methyl N-{4-[(1E)-3-(hydroxyamino)-3-oxoprop-1-en-1-yl]benzyl}-L-tryptophanate] | 331 to 3300 nM | – | 331 to 3300 nM | 331 to 3300 nM
8 | O=C(CCc1ccc(CN[C@H](C(=O)OC2CCCC2)C2CCCCC2)cc1)NO [Example 33, Cyclopentyl (2S)-cyclohexyl({4-[3-(hydroxyamino)-3-oxopropyl]benzyl}amino)acetate] | – | 101 to 1000 nM | < 330 nM | 331 to 3300 nM
9 | CC(C)C[C@H](NCc1ccc(CCC(=O)NO)cc1)C(=O)OC1CCCC1 [Example 34, Cyclopentyl N-{4-[3-(hydroxyamino)-3-oxopropyl]benzyl}-L-leucinate] | – | 101 to 1000 nM | < 330 nM | < 330 nM
10 | O=C(/C=C/c1ccc(CN[C@H](C(=O)OC2Cc3ccccc3C2)C2CCCCC2)cc1)NO [Example 23, 2,3-Dihydro-1H-inden-2-yl (2S)-cyclohexyl({4-[(1E)-3-(hydroxyamino)-3-oxoprop-1-en-1-yl]benzyl}amino)acetate] | – | 101 to 1000 nM | < 330 nM | 331 to 3300 nM
11 | O=C(/C=C/c1ccc(CN[C@@H](C(=O)OC2CCCC2)c2ccccc2)cc1)NO [Example 22, Cyclopentyl (2R)-({4-[(1E)-3-(hydroxyamino)-3-oxoprop-1-en-1-yl]benzyl}amino)(phenyl)acetate] | – | 101 to 1000 nM | 331 to 3300 nM | 331 to 3300 nM
12 | O=C(/C=C/c1ccc(CN[C@H](C(=O)OCCN2CCOCC2)C2CCCCC2)cc1)NO [Example 30, 2-Morpholin-4-ylethyl (2S)-cyclohexyl({4-[(1E)-3-(hydroxyamino)-3-oxoprop-1-en-1-yl]benzyl}amino)acetate] | – | 101 to 1000 nM | < 330 nM | < 330 nM
13 | CC(C)(C)OC(=O)[C@@H](NCc1ccc(CCC(=O)NO)nc1)c1ccccc1 [Example 64, tert-Butyl (2S)-[({6-[3-(hydroxyamino)-3-oxopropyl]pyridin-3-yl}methyl)amino](phenyl)acetate] | – | 101 to 1000 nM | 331 to 3300 nM | 331 to 3300 nM
14 | CC(C)[C@H]1CC[C@H](C)C[C@@H]1OC(=O)[C@@H](NCc1ccc(CCC(=O)NO)cc1)C1CCCCC1 [Example 48, (1S,2R,5S)-2-Isopropyl-5-methylcyclohexyl (2S)-cyclohexyl({4-[3-(hydroxyamino)-3-oxopropyl]benzyl}amino)acetate] | – | > 1000 nM | 331 to 3300 nM | 331 to 3300 nM

The next lines start with results.

Row | IC50 [2] | IC50 [3] | IC50 [4] | SMILES | IC50 [1]
15 | – | 101 to 1000 nM | < 330 nM | CC(C)C[C@H](NCc1ccc(CNCc2ccc(CCC(=O)NO)cc2)cc1)C(=O)OC(C)(C)C [Example 78, tert-Butyl N-{4-[({4-[3-(hydroxyamino)-3-oxopropyl]benzyl}amino)methyl]benzyl}-L-leucinate] | 331 to 3300 nM
16 | – | 101 to 1000 nM | 331 to 3300 nM | O=C(CCc1ccc(CN2CCNC(C(=O)OC3CCCC3)C2)cc1)NO (stereo not shown) [Example 113, Cyclopentyl 4-{4-[3-(hydroxyamino)-3-oxopropyl]benzyl}piperazine-2-carboxylate] | 331 to 3300 nM
17 | > 3300 nM | – | < 330 nM | CC(C)(C)OC[C@H](NCc1ccc(CNCc2cccc(/C=C/C(=O)NO)c2)cc1)C(=O)OC1CCCC1 [Example 74, Cyclopentyl O-tert-butyl-N-{4-[({3-[(1E)-3-(hydroxyamino)-3-oxoprop-1-en-1-yl]benzyl}amino)methyl]benzyl}-L-serinate] | 331 to 3300 nM
18 | – | 101 to 1000 nM | 331 to 3300 nM | CC(C)C[C@H](NCCc1ccc(/C=C/C(=O)NO)cc1)C(=O)OC(C)(C)C [Example 87, tert-Butyl N-(2-{4-[(1E)-3-(hydroxyamino)-3-oxoprop-1-en-1-yl]phenyl}ethyl)-L-leucinate] | 331 to 3300 nM
19 | – | 101 to 1000 nM | < 330 nM | O=C(CCc1ccc(CNCc2ccc(CN[C@H](C(=O)OC3CCCC3)C3CCCCC3)cc2)cc1)NO [Example 77, Cyclopentyl (2S)-cyclohexyl({4-[({4-[3-(hydroxyamino)-3-oxopropyl]benzyl}amino)methyl]benzyl}amino)acetate] | 331 to 3300 nM
20 | – | 101 to 1000 nM | < 330 nM | CC(C)C[C@H](NC(C)c1ccc(CCC(=O)NO)cc1)C(=O)OC(C)(C)C (stereo partly drawn) [Example 86, tert-Butyl N-(1-{4-[3-(hydroxyamino)-3-oxopropyl]phenyl}ethyl)-L-leucinate] | 331 to 3300 nM
21 | – | < 100 nM | < 330 nM | CC(C)C[C@H](NC(C)c1ccc(/C=C/C(=O)NO)cc1)C(=O)OC(C)(C)C (stereo partly drawn) [Example 85, tert-Butyl N-(1-{4-[(1E)-3-(hydroxyamino)-3-oxoprop-1-en-1-yl]phenyl}ethyl)-L-leucinate] | < 330 nM
22 | – | < 100 nM | < 330 nM | CC(C)C[C@H](NCc1ccc(CNCc2ccc(/C=C/C(=O)NO)cc2)cc1)C(=O)OC(C)(C)C [Example 76, tert-Butyl N-{4-[({4-[(1E)-3-(hydroxyamino)-3-oxoprop-1-en-1-yl]benzyl}amino)methyl]benzyl}-L-leucinate] | < 330 nM
23 | – | > 1000 nM | > 3300 nM | CC(N[C@H](C(=O)OC1CCCC1)C1CCCCC1)c1ccc(/C=C/C(=O)NO)cc1 (stereo partly shown) [Example 84] | > 3300 nM
